{"source": "patent US9211288B2", "about": "(priority 2012, dated 2015)", "key": {"[1]": {"tested_on": "acetylcholine levels in ventral hippocampus", "settings": "donepezil 1 mg/kg ip and vehicle; compared to vehicle+vehicle", "quoted_text": "Adult, male, Wistar rats were used for the experiments. The rats were anesthetized before surgery. Each animal was placed in a stereotaxic frame (Kopf Instruments, USA) and an incision was made on the top of the skull. A microdialysis probe with a 4 mm^2 exposed surface (polyacrylnitril membrane, Brainlink, the Netherlands) was implanted into the ventral hippocampus. […] The probes were attached to the skull with stainless steel screws and dental cement. Experiments started after one day of recovery.\nVortioxetine HBr was prepared in 10% 2-hydroxypropyl-β-cyclodextrin at 0, 5 or 10 mg/ml.\nAfter two hours of prestabilisation, samples (30 μl) were collected and stored in 20 mM formic acid and 0.04% ascorbic acid (10 μl).\nThe concentration of acetylcholine in the samples was determined by HLPC fitted with tandem mass spectroscopy (MS/MS) for detection using acetyl-β-methyl-choline as internal standard. Chromatographic separation was performed on a reversed phase Phenomenex Synergi Max-RP column (2.0×150 mm, particle size 4 μm) at 50° C. Components were separated using an isocratic flow of eluent A (20 mM ammonium acetate, 5% acetonitril and 0.3% trifluoroacetic acid) at a flow rate of 0.25 ml/min. […]\nThe average of three pre-administration samples was set to 100%. […] All post-administration samples were expressed as a percentage of basal level within the same subject. […]"}, "[2]": {"tested_on": "acetylcholine levels in hippocampus", "test": "Microdialysis: acetylcholine levels in ventral hippocampus of freely moving Sprague Dawley rats (Examples 3 and 4)", "format": "in vivo, rat", "quoted_text": "Adult, male Sprague Dawley rats were used in the experiments. The rats were anesthetized before surgery. The animals were placed in a stereotaxic frame (Kopf instruments, USA), and CMA12 guide cannulas (CMA Microdialysis, Sweden) were implanted aiming into the ventral hippocampus. Coordinates for the tips of the probes were AP=−5.3 mm to bregma, lateral (ML)=−4.8 mm to midline and ventral=−8.0 mm to dura (Paxinos and Watson).\nGalanthamine, the chemical name of which is (4aS,6R,8aS)-4a,5,9,10,11,12-hexahydro-3-methoxy-11-methyl-6H-benzofuro[3a,3,2-ef][2]benzazepin-6-ol, was administered as the HBr salt. Vortioxetine was administered as the HBr salt. Vortioxetine and galantamine were prepared in 0.9% saline. Vortioxetine was administered subcutaneously at 10 mg/kg and galantamine was administered subcutaneously at 0.3 mg/kg and 1.0 mg/kg.\nThe day before the experiment, a microdialysis probe (CMA/12, 4 mm, PAES, MWKO 100 kDa) was inserted into the respective guide cannula in the awake rats. […] At the day of the experiment, samples were collected in 30 min intervals prior to administration to define the baseline. The data is presented as percentage of baseline within the same animal. Significance is defined as p<0.05. Animals received treatments according to experimental protocol and samples were collected at 30 minutes intervals.\nThe concentration of acetylcholine in the samples was determined using a Waters Acquity HPLC system equipped with a Sunshell RP-Aqua 2.1×100 mm, 2.6 um particle column fitted with a Waters Quattro Premier XE triple quadrupole mass spectrometer operating in the MS/MS mode. Components were separated using an isocratic flow of eluent A (100 mM ammonium acetate in milliQ water).\nInjection of galantamine was 60 minutes prior to the injection of vortioxetine."}, "[3]": {"tested_on": "rats with scopolamine-induced memory impairment", "test": "Novel object recognition task (NOR) in rats with scopolamine-induced memory impairment (Example 5)", "format": "in vivo, rat", "description": "In a habituation phase, rats are allowed to explore the test room environment and two objects which differ in shape, colour and texture. In the test phase, one of the objects is exchanged so that the rats are exposed to one novel object and one familiar object. The time spent exploring the novel and the familiar object is recorded following the administration of test compounds.\nSprague-Dawley rats were used\nOne day 1 and day 2 of the experiment the rats received two habituation sessions to the test room environment including two objects (familiar objects). Each session lasted 6 minutes. […] At the test day, five groups of rats received a third habituation test (familiarization trial) after which they were removed from the test apparatus and one of the objects was replaced with a novel object. Four hours later, the rats were put back in the test apparatus (test phase) and the time used exploring of the familiar and the novel object was recorded.\nThe numbers in parenthesis indicate the number of rats in each group"}, "[4]": {"format": "in vivo", "settings": "rat", "excerpt": "In addition, blood samples were taken from each animal to measure the plasma level of the active ingredients."}, "[5]": {"settings": "plasma; cited from earlier work"}, "serotonin transporter [6]": {"target": "T1, serotonin transporter (Rattus norvegicus, UniProt P31652)", "T1 construct": "The receptor occupancy in rats following administration of vortioxetine has been investigated; host or cells: rat, in vivo / ex vivo occupancy", "T1 sequence (P31652 whole entry)": "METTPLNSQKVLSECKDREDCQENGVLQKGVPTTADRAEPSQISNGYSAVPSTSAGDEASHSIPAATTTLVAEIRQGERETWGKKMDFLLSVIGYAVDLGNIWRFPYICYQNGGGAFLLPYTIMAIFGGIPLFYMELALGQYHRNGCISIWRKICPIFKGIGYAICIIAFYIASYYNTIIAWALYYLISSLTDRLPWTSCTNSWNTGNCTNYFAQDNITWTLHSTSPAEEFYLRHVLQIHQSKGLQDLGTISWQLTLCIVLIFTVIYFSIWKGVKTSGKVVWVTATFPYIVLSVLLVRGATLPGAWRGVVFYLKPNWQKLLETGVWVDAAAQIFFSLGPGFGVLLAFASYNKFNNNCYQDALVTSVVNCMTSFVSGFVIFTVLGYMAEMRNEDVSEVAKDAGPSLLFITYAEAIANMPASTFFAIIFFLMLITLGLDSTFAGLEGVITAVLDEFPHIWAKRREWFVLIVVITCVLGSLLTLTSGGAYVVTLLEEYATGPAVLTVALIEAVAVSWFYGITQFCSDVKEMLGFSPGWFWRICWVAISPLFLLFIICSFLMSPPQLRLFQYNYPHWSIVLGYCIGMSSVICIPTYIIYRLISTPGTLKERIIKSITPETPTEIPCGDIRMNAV", "settings": "rats; vortioxetine dosed at 5-10 mg/kg; cited from earlier work"}, "5-HT3-receptor": {"target": "T2, 5-HT3-receptor (Rattus norvegicus, UniProt P35563)", "T2 construct": "The receptor occupancy in rats following administration of vortioxetine has been investigated; host or cells: rat, in vivo / ex vivo occupancy", "T2 sequence (P35563 24-483)": "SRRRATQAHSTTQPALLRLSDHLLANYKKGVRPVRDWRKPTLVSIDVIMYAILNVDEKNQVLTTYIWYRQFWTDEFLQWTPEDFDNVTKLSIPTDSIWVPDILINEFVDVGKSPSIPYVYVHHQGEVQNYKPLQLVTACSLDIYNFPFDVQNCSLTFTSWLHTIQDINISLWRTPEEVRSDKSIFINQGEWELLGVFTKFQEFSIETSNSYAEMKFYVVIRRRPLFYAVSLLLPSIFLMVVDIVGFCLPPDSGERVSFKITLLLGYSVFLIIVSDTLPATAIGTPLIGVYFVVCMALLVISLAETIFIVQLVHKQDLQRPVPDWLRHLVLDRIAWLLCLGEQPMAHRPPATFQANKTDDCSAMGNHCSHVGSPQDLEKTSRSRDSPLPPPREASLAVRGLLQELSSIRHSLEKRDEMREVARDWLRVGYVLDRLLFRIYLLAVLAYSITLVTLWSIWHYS", "settings": "rats; vortioxetine dosed at 5-10 mg/kg; cited from earlier work"}, "5-HT1B-receptor": {"target": "T3, 5-HT1B-receptor (Rattus norvegicus, UniProt P28564)", "T3 construct": "The receptor occupancy in rats following administration of vortioxetine has been investigated; host or cells: rat, in vivo / ex vivo occupancy", "T3 sequence (P28564 whole entry)": "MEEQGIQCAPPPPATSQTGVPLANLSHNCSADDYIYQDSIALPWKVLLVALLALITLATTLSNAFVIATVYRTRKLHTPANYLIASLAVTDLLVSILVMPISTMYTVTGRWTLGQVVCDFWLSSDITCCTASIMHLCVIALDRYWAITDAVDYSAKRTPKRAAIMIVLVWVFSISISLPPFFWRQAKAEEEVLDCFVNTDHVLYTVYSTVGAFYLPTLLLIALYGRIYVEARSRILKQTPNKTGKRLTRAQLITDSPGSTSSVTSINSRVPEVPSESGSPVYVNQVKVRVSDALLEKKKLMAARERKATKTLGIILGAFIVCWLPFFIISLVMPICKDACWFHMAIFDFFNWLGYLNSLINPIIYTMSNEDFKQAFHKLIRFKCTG", "settings": "rats; vortioxetine dosed at 5-10 mg/kg; cited from earlier work"}, "serotonin transporter [7]": {"target": "T4, serotonin transporter (Homo sapiens, UniProt P31645)", "T4 construct": "The serotonin transporter occupancy in humans was investigated; host or cells: human subjects, in vivo", "T4 sequence (P31645 whole entry)": "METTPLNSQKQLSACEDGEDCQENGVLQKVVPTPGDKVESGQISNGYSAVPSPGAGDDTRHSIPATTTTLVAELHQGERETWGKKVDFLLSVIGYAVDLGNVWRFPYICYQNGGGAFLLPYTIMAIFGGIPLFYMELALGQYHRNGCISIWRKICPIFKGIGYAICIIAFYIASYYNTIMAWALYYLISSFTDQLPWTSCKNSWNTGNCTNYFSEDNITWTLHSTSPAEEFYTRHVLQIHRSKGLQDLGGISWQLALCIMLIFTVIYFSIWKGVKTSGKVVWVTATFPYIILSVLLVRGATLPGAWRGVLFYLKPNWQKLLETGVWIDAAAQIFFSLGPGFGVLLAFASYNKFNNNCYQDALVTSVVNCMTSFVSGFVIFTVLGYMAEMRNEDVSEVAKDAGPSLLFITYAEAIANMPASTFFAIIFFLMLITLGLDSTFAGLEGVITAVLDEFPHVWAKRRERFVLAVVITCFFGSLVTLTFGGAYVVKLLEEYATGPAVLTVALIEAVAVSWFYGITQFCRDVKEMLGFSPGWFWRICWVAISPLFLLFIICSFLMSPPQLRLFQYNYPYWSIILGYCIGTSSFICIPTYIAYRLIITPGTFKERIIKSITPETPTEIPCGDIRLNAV", "settings": "humans, cited from earlier work"}, "[8]": {"tested_on": "patients suffering from MDD", "settings": "long-term study; cited from earlier work"}, "[9]": {"tested_on": "patients with major depressive disorder (MDD)", "settings": "cited from earlier work"}}, "note": "Like-named read-outs stand apart in the source and are kept apart here.", "data": [{"compound": "COc1cc2c(cc1OC)C(=O)C(CC1CCN(Cc3ccccc3)CC1)C2", "note": "(stereo not drawn) [Donepezil]", "values": [{"measurement": "acetylcholine levels in ventral hippocampus", "setting": "[1]", "value": "significantly increased"}]}, {"compound": "COc1ccc2c3c1O[C@H]1C[C@@H](O)C=C[C@@]31CCN(C)C2", "note": "[galantamine, (4aS,6R,8aS)-4a,5,9,10,11,12-hexahydro-3-methoxy-11-methyl-6H-benzofuro[3a,3,2-ef][2]benzazepin-6-ol]", "values": [{"measurement": "acetylcholine levels in hippocampus", "setting": "[2]; galantamine 0.3 and 1.0 mg/kg sc and vehicle", "value": "dose dependent, significant increase"}]}, {"compound": "CN1[C@@H]2C[C@@H](OC(=O)[C@H](CO)c3ccccc3)C[C@H]1[C@@H]1O[C@@H]12", "note": "[scopolamine]", "values": [{"measurement": "effect on short-term memory (recognition index, RI)", "setting": "[3]; scopolamine 0.5 mg/kg ip 40 minutes prior to familiarization trial, versus saline, p<0.001", "value": "impairs short-term memory"}]}, {"compound": "Cc1ccc(Sc2ccccc2N2CCNCC2)c(C)c1", "note": "[Vortioxetine, 1-[2-(2,4-dimethyl-phenylsulfanyl)-phenyl]-piperazine]", "values": [{"measurement": "Vortioxetine in plasma", "setting": "[4]; vortioxetine 10 mg/kg sc + donepezil 0.3 mg/kg ip", "value": 317, "unit": "ng/mL"}, {"measurement": "Vortioxetine in plasma", "setting": "[4]; vortioxetine 10 mg/kg sc + donepezil 1 mg/kg ip", "value": 317, "unit": "ng/mL"}, {"measurement": "acetylcholine levels in hippocampus", "setting": "[2]; vortioxetine 10 mg/kg sc", "value": "significant increase"}, {"measurement": "reversal of scopolamine-induced memory impairment (recognition index, RI)", "setting": "[3]; scopolamine 0.5 mg/kg + vortioxetine 5 mg/kg ip 20 minutes prior to familiarization trial", "value": "neither vortioxetine at 5 mg/kg nor donepezil at 0.5 mg/kg is able to reverse this impairment"}, {"measurement": "half-life in humans", "setting": "[5]", "value": "approximately 57 hours"}, {"measurement": "occupancy at serotonin transporter", "setting": "serotonin transporter [6]", "value": "almost full occupancy"}, {"measurement": "occupancy at 5-HT3-receptor", "setting": "5-HT3-receptor", "value": "almost full occupancy"}, {"measurement": "occupancy at 5-HT1B-receptor", "setting": "5-HT1B-receptor", "value": "almost full occupancy"}, {"measurement": "serotonin transporter occupancy", "setting": "serotonin transporter [7]; 5 mg/day", "value": 51, "unit": "%"}, {"measurement": "serotonin transporter occupancy", "setting": "serotonin transporter [7]; 10 mg/day", "value": 63, "unit": "%"}, {"measurement": "serotonin transporter occupancy", "setting": "serotonin transporter [7]; 20 mg/day", "value": 90, "unit": "%"}, {"measurement": "prevention of relapse", "setting": "[8]", "value": "effective in preventing relapse"}, {"measurement": "changes in clinical laboratory results, vital signs, weight, or ECG parameters", "setting": "[9]; human, in vivo", "value": "no clinically relevant changes"}, {"measurement": "treatment of depressive and anxious symptoms versus placebo", "setting": "[9]; patients with MDD, six weeks", "value": "separates significantly from placebo"}]}, {"compound": "CCN(C)C(=O)Oc1cccc([C@H](C)N(C)C)c1", "note": "[rivastigmine, (S)—N-ethyl-N-methyl-3-[1-(dimethylamino)ethyl]-phenyl carbamate]", "values": [{"measurement": "acetylcholine levels in hippocampus", "setting": "[2]; rivastigmine 0.2 and 0.6 mg/kg sc and vehicle", "value": "dose-dependently and significantly increases"}]}]}
